Consider one compound from patent US9045401B2, “Methods for treating or ameliorating a melanoma and killing melanoma cells” (THE REGENTS OF THE UNIVERSITY OF CALIFORNIA, priority 2007, dated 2015).

This assay deals with A549 cells. The assay is described as follows: confocal microscopy of ceramide and caspase 8. In kind it is cell-based, human. The note with it: 300 nM, 30 minutes after treatment. The protocol: Confocal microscopy. […] After treatment, the cells were fixed 10 minutes at room temperature with 4% PFA, washed twice with PBS, permeabilized 2 minutes at room temperature with 0.1% triton in PBS and blocked for 30 minutes with sterile 2% BSA in PBS. The staining was performed at room temperature for 2 hours (h), with mouse monoclonal anti-human ceramide (Alexis) and rabbit anti-human caspase 8 (BD Pharmingen) antibodies followed by secondary goat anti-mouse ALEXA FLUOR568™ and goat anti-rabbit ALEXA FLUOR488™ antibodies (Invitrogen). The blue DNA binding dye TOPRO-3™ (Molecular Probes) was added together with the secondary antibodies. The cells were washed three times with PBS between the different incubation steps and the incubation with the secondary fluorescently labeled antibodies was performed in the dark. All antibodies were diluted in PBS. Confocal images were recorded on a Nikon ECLIPSE C1™ confocal microscope.

For `CCCCC/C=C\C/C=C\C/C=C\C/C=C\CCCC(=O)O` [arachidonic acid, reference compound], the cell surface ceramide result is given as “absent”.
